Results from US10759783B2, “Biaryl inhibitors of Bruton'S tyrosine kinase” (BIOGEN MA INC., priority 2013, dated 2020).
Read-outs that look alike come from different tables or passages of the source.

How the values were obtained:
BTK enzyme = target: T1, BTK enzyme (Homo sapiens, UniProt Q06187); experiment: In vitro BTK kinase assay: BTK-POLYGAT-LS assay; assay type: biochemical; conditions: ATP 10 μM, read-out: IC50 (10uMATP)
T1 construct: purchased Upstate 14-552
In short: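 Human BTK activity was measured with final 10 μM ATP and 100 nM polyGAT substrate in pH 7.5 Tris buffer with 10 mM MgCl2, DTT, Triton X-100 and casein.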

[1] = target: BTK (phospho-BTK) in human whole blood (Homo sapiens, UniProt Q06187); experiment: In vitro PD assay in human whole blood (pBTK assay)
BTK (phospho-BTK) in human whole blood, sequence (Q06187 whole entry): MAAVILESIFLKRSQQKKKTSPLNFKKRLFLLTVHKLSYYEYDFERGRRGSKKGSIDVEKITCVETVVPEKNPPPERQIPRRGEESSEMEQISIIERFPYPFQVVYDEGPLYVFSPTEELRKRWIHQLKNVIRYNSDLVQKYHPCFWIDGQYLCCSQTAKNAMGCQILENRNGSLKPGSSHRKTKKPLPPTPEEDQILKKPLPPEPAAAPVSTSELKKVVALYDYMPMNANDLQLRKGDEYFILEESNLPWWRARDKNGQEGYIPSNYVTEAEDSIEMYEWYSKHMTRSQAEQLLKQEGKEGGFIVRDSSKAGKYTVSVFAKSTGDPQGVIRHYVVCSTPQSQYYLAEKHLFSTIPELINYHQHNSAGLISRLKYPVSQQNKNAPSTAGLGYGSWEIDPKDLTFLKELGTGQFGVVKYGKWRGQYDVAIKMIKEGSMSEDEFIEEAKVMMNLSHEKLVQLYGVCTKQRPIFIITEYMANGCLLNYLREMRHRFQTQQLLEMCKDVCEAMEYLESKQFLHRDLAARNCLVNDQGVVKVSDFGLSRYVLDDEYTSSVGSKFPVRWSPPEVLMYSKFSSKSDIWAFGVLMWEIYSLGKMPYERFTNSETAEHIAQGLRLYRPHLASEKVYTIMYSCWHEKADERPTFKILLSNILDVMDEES

T1 sequence (Q06187 whole entry): as above

SMILES | IC50 (BTK enzyme) [µM] | IC50 [1] [µM] | IC50 ([1]; read-out: pBTK IC50, human whole blood, 37° C. for 30 min) [µM]
Cc1cc(-c2cc(Nc3cc4n(n3)CCOC4)ncn2)ccc1CNC(=O)c1cnn(C(C)(C)C)c1 [Example I-237, 1-(tert-butyl)-N-(4-(6-((6,7-dihydro-4H-pyrazolo[5,1-c][1,4]oxazin-2-yl)amino)pyrimidin-4-yl)-2-methylbenzyl)-1H-pyrazole-4-carboxamide] | < 0.01 | < 0.5 | 
Cc1cc(-c2ccnc(Nc3cnn(C4CNC4)c3)n2)ccc1CNC(=O)c1cnc(C(C)(C)C)s1 [Example I-42, N-(4-(2-((1-(azetidin-3-yl)-1H-pyrazol-4-yl)amino)pyrimidin-4-yl)-2-methylbenzyl)-2-(tert-butyl)thiazole-5-carboxamide] | < 0.01 | < 0.5 | 
Cc1cc(-c2ccnc(Nc3cnn(C)c3)n2)ccc1CN1CCN(CC(C)C)CC1=O [Example I-249, 4-isobutyl-1-(2-methyl-4-(2-((1-methyl-1H-pyrazol-4-yl)amino)pyrimidin-4-yl)benzyl)piperazin-2-one] | < 0.01 | < 0.5 | 
COCCc1cc(-c2ccnc(Nc3cnn(C)c3)n2)ccc1CNC(=O)N1CC(OC(C)(C)C)C1 [Example I-319, 3-tert-butoxy-N-[[2-(2-methoxyethyl)-4-[2-[(1-methylpyrazol-4-yl)amino]pyrimidin-4-yl]phenyl]methyl]azetidine-1-carboxamide] | < 0.01 | < 0.5 | 
Cc1cc(-c2cc(Nc3ccn([C@@H]4CCOC4)n3)ncn2)ccc1CNC(=O)c1cnc(C(C)(C)C)s1 [Example I-357, 2-tert-butyl-N-[[2-methyl-4-[6-[[1-[(3R)-tetrahydrofuran-3-yl]pyrazol-3-yl]amino]pyrimidin-4-yl]phenyl]methyl]thiazole-5-carboxamide] | < 0.01 | < 0.5 | 
Cc1cc(-c2ccnc(Nc3cnn(C4CN(C)C4)c3)n2)ccc1CNC(=O)N1CC(OC(C)C)C1 [Example I-218, 3-isopropoxy-N-(2-methyl-4-(2-((1-(1-methylazetidin-3-yl)-1H-pyrazol-4-yl)amino)pyrimidin-4-yl)benzyl)azetidine-1-carboxamide] | < 0.01 | < 0.5 | 
Cn1cc(Nc2nccc(-c3ccc4c(c3)CCCC4NC(=O)c3cc4c(s3)CCOC4)n2)cn1 (stereo not drawn) [Example I-95, N-(6-(2-((1-methyl-1H-pyrazol-4-yl)amino)pyrimidin-4-yl)-1,2,3,4-tetrahydronaphthalen-1-yl)-6,7-dihydro-4H-thieno[3,2-c]pyran-2-carboxamide] | < 0.01 | 0.5 to 1.5 | 
Cc1cc(-c2ccnc(Nc3cnn(C4CCN(C)CC4)c3)n2)ccc1CNC(=O)N1CC(OC(C)C)C1 [Example I-219, 3-isopropoxy-N-(2-methyl-4-(2-((1-(1-methylpiperidin-4-yl)-1H-pyrazol-4-yl)amino)pyrimidin-4-yl)benzyl)azetidine-1-carboxamide] | < 0.01 | < 0.5 | 
Cc1cc(-c2ccnc(Nc3cnn(C)c3)n2)ccc1CNC(=O)N1CCOC(C(C)C)C1 (stereo not drawn) [Example I-24, 2-isopropyl-N-(2-methyl-4-(2-((1-methyl-1H-pyrazol-4-yl)amino)pyrimidin-4-yl)benzyl)morpholine-4-carboxamide] | 0.01 to 0.099 | 1.5 to 10 | 
CC(C)(C)C1CCN(C(=O)NCc2ccc(-c3ccnc(Nc4cnn(CCO)c4)n3)cc2C(F)(F)F)C1 (stereo not drawn) [Example I-209, 3-(tert-butyl)-N-(4-(2-((1-(2-hydroxyethyl)-1H-pyrazol-4-yl)amino)pyrimidin-4-yl)-2-(trifluoromethyl)benzyl)pyrrolidine-1-carboxamide] | < 0.01 | < 0.5 | 
Cc1cc(-c2ccnc(Nc3cnn([C@@H]4CCNC[C@H]4F)c3)n2)ccc1CNC(=O)N1CC(OC(C)C)C1 (relative stereo) [Example I-220] | < 0.01 |  | < 0.5
Cc1cc(-c2ccnc(Nc3cnn(C[C@@H]4CNCCO4)c3)n2)ccc1CNC(=O)c1cnc(C(C)(C)C)s1 [Example I-126, (S)-2-(tert-butyl)-N-(2-methyl-4-(2-((1-(morpholin-2-ylmethyl)-1H-pyrazol-4-yl)amino)pyrimidin-4-yl)benzyl)thiazole-5-carboxamide] | < 0.01 | < 0.5 | 
Cc1cc(-c2ccnc(Nc3cnn(C)c3)n2)ccc1CNC(=O)N1CC(OCCF)C1 [Example I-307, 3-(2-fluoroethoxy)-N-[[2-methyl-4-[2-[(1-methylpyrazol-4-yl)amino]pyrimidin-4-yl]phenyl]methyl]azetidine-1-carboxamide] | < 0.01 | < 0.5 | 
Cc1c(Nc2nccc(-c3ccc(CNC(=O)N4CCC(C(C)(C)C)C4)c(CCO)c3)n2)cnn1C (stereo not drawn) [Example I-321, 3-tert-butyl-N-[[4-[2-[(1,5-dimethylpyrazol-4-yl)amino]pyrimidin-4-yl]-2-(2-hydroxyethyl)phenyl]methyl]pyrrolidine-1-carboxamide] | < 0.01 | < 0.5 | 
Cc1cc(-c2cc(Nc3cc4n(n3)CCOC4)ncn2)ccc1CNC(=O)N1CC(OC(C)C)C1 [Example I-277, N-[[4-[6-(6,7-dihydro-4H-pyrazolo[5,1-c][1,4]oxazin-2-ylamino)pyrimidin-4-yl]-2-methyl-phenyl]methyl]-3-isopropoxy-azetidine-1-carboxamide] | < 0.01 | < 0.5 | 
Cc1cc(-c2cc(Nc3cc4n(n3)CCN(C)C4)ncn2)ccc1CNC(=O)N1CC(OC(C)(C)C)C1 [Example I-256, 3-tert-butoxy-N-[[2-methyl-4-[6-[(5-methyl-6,7-dihydro-4H-pyrazolo[1,5-a]pyrazin-2-yl)amino]pyrimidin-4-yl]phenyl]methyl]azetidine-1-carboxamide] | < 0.01 | < 0.5 | 
Cc1cc(-c2ccnc(Nc3cnn(CCO)c3)n2)ccc1CNC(=O)c1cc2c(s1)CCOC2 [Example I-120, N-(4-(2-((1-(2-hydroxyethyl)-1H-pyrazol-4-yl)amino)pyrimidin-4-yl)-2-methylbenzyl)-6,7-dihydro-4H-thieno[3,2-c]pyran-2-carboxamide] | < 0.01 | 0.5 to 1.5 | 
Cc1cc(-c2cc(Nc3cc4n(n3)CCN(C)C4=O)ncn2)ccc1CNC(=O)c1cnc(C(C)(C)C)s1 [Example I-278, 2-tert-butyl-N-[[2-methyl-4-[6-[(5-methyl-4-oxo-6,7-dihydropyrazolo[1,5-a]pyrazin-2-yl)amino]pyrimidin-4-yl]phenyl]methyl]thiazole-5-carboxamide] | < 0.01 | < 0.5 | 
CC(C)C1CCN(C(=O)NC2CCCCc3cc(-c4ccnc(Nc5cnn([C@@H]6CCOC6)c5)n4)ccc32)C1 (stereo partly drawn) [Example I-344, 3-isopropyl-N-[2-[2-[[1-[(3R)-tetrahydrofuran-3-yl]pyrazol-4-yl]amino]pyrimidin-4-yl]-6,7,8,9-tetrahydro-5H-benzo[7]annulen-5-yl]pyrrolidine-1-carboxamide] | < 0.01 | < 0.5 | 
CC(C)(C)OC1CN(C(=O)NC2CCCCc3cc(-c4ccnc(Nc5cnn(C6CCOCC6)c5)n4)ccc32)C1 (stereo not drawn) [Example I-179, 3-(tert-butoxy)-N-(2-(2-((1-(tetrahydro-2H-pyran-4-yl)-1H-pyrazol-4-yl)amino)pyrimidin-4-yl)-6,7,8,9-tetrahydro-5H-benzo[7]annulen-5-yl)azetidine-1-carboxamide] | < 0.01 | < 0.5 | 
CC(C)(C)C1CCN(C(=O)NCc2ccc(-c3ccnc(Nc4cnn(C5CC5)c4)n3)cc2C(F)(F)F)C1 (stereo not drawn) [Example I-296, 3-tert-butyl-N-[[4-[2-[(1-cyclopropylpyrazol-4-yl)amino]pyrimidin-4-yl]-2-(trifluoromethyl)phenyl]methyl]pyrrolidine-1-carboxamide] | < 0.01 | < 0.5 | 
CCn1cc(Nc2nccc(-c3ccc(CNC(=O)N4CC(OC(C)(C)C)C4)c(C(F)(F)F)c3)n2)cn1 [Example I-203, 3-(tert-butoxy)-N-(4-(2-((1-ethyl-1H-pyrazol-4-yl)amino)pyrimidin-4-yl)-2-(trifluoromethyl)benzyl)azetidine-1-carboxamide] | < 0.01 | < 0.5 | 
Cc1cc(-c2cc(Nc3cc4n(n3)CCC4)ncn2)ccc1CNC(=O)c1cnn(C(C)(C)C)c1 [Example I-193, 1-(tert-butyl)-N-(4-(6-((5,6-dihydro-4H-pyrrolo[1,2-b]pyrazol-2-yl)amino)pyrimidin-4-yl)-2-methylbenzyl)-1H-pyrazole-4-carboxamide] | < 0.01 | < 0.5 | 
Cc1cc(-c2ccnc(Nc3cnn(C)c3)n2)ccc1CN1Cc2cc(C3CC3)sc2C1=O [Example I-13, 2-cyclopropyl-5-(2-methyl-4-(2-((1-methyl-1H-pyrazol-4-yl)amino)pyrimidin-4-yl)benzyl)-4H-thieno[2,3-c]pyrrol-6(5H)-one] | < 0.01 | 1.5 to 10 | 
Cc1cc(-c2cc(Nc3cc4n(n3)CCCNC4)ncn2)ccc1CNC(=O)N1CC(OC(C)C)C1 [Example I-273, 3-isopropoxy-N-[[2-methyl-4-[6-(5,6,7,8-tetrahydro-4H-pyrazolo[1,5-a][1,4]diazepin-2-ylamino)pyrimidin-4-yl]phenyl]methyl]azetidine-1-carboxamide] | < 0.01 | < 0.5 | 
Cc1cc(-c2cc(Nc3cc4n(n3)CCOC4)ncn2)ccc1CNC(=O)N1CCC(C(C)(C)C)C1 (stereo not drawn) [Example I-288, 3-tert-butyl-N-[[4-[6-(6,7-dihydro-4H-pyrazolo[5,1-c][1,4]oxazin-2-ylamino)pyrimidin-4-yl]-2-methyl-phenyl]methyl]pyrrolidine-1-carboxamide] | < 0.01 | < 0.5 | 
Cn1cc(Nc2nccc(-c3ccc4c(c3)CCCC4NC(=O)N3CC(OC(C)(C)C)C3)n2)cn1 (stereo not drawn) [Example I-359, 3-tert-butoxy-N-[6-[2-[(1-methylpyrazol-4-yl)amino]pyrimidin-4-yl]tetralin-1-yl]azetidine-1-carboxamide] | < 0.01 | < 0.5 | 
